One compound from ChEMBL document CHEMBL1129630, “Synthesis and structure-activity relationships of retinoid X receptor selective diaryl sulfide analogs of retinoic acid” (J Med Chem, 1996) can be followed below.

The subject of the test is HL-60. The test can be described thus: Induction of transglutaminase (TGase) activity in HL-60 cells. The note with it: Homo sapiens.

Molecules are shown by their SMILES.

In turn, `C/C(=C\c1ccc(C(=O)O)cc1)c1ccc2c(c1)C(C)(C)CCC2(C)C` came in with an EC50 above 1000 nM.

A word on the EC50: it is the concentration needed to bring the measured effect to its halfway point. Read a low EC50 as a more potent agent.
